Data from patent US10865207B2, “Compounds for imaging Tau protein aggregates” (AC IMMUNE S.A., priority 2016, dated 2020).
Marks after values point to notes of the source that are not given here.

What was measured:
[1] = target: T1, MAO B (Homo sapiens, UniProt P27338); assay: MAO B 18F-fluoro deprenyl competition assay in human HC brain homogenate; type: binding; set-up: Low affinity to MAO B (grade): key: −: poor; ∘: moderate; +: good; ++: very good; +++: excellent
T1 construct: 20 μg of human brain homogenate (without AD pathology); from tissue; host or cells: human brain homogenate without AD pathology
T1 sequence (P27338 1-520): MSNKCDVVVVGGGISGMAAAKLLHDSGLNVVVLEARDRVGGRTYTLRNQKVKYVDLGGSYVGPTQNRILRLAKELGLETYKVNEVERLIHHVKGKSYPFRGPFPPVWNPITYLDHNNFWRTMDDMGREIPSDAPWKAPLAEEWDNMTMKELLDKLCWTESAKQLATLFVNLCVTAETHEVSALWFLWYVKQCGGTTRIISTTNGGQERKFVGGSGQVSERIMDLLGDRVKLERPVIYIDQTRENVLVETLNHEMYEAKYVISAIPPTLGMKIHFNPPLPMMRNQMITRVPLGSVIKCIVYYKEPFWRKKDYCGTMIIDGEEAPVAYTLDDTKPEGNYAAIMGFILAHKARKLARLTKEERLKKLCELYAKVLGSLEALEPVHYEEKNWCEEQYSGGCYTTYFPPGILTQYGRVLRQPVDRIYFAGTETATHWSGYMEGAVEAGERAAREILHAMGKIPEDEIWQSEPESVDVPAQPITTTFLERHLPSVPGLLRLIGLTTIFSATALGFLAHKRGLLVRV
Procedure: The samples were shaken at 110 rpm for 45 min at 37° C. Samples were then filtered through GF/B 96 well filter plates and washed twice with 300 μL assay buffer (PBS containing 0.1% BSA and 2% DMSO). Thereafter, filter plates were sealed and a Fuji Film Imaging Plate (BAS-SR2025) was placed on top. The imaging plate was analyzed after overnight exposition using a Fuji Film BAS-5000. […] IC50 values were calculated by Prism V6 (GraphPad) setting total binding to 100%.

[2] = PK studies in healthy mice (dynamic PET); type: in vivo, NMRI mice; set-up: Good brain uptake (grade) / Mouse PK Uptake (grade): key: −: poor; ∘: moderate; +: good; ++: very good; +++: excellent; on Fast washout from healthy brain (grade): key: −: poor; ∘: moderate; +: good; ++: very good; +++: excellent; on Good brain uptake (grade): key: −: poor; ∘: moderate; +: good; ++: very good; +++: excellent; on Low or minor de-fluorination (grade): key: −: poor; ∘: moderate; +: good; ++: very good; +++: excellent; on Low retention in healthy brain (grade): key: −: poor; ∘: moderate; +: good; ++: very good; +++: excellent
Procedure: NMRI mice (weight range 25-35 g) were injected intravenously with the ^18F-labeled compounds. Up to 150 μL of 1×PBS solution with 10%-15% EtOH or dilution medium ([…]) containing the ^18F-labeled compound (2-10 MBq) were injected. Anesthesia with isoflurane was induced before injection of the tracer and maintained during the image acquisition period. PET scans were performed using a SIEMENS INVEON small animal PET/CT scanner (Siemens, Knoxville, Tenn.). PET acquisition was started immediately before the radioactive dose was injected into the animal through the tail vein. Images were generated as dynamic scans for 60 minutes.
The peak uptake in the brain was set to 100% and washout curves were generated to evaluate the clearance of the activity from the normal brain (FIG. 2).

[3] = target: amyloid-beta (Homo sapiens, UniProt P05067); assay: Competition binding to amyloid-beta in AD brain homogenate; conditions: for IC50: fluorine-19 derivatives
Chain of amyloid-beta (P05067 whole entry): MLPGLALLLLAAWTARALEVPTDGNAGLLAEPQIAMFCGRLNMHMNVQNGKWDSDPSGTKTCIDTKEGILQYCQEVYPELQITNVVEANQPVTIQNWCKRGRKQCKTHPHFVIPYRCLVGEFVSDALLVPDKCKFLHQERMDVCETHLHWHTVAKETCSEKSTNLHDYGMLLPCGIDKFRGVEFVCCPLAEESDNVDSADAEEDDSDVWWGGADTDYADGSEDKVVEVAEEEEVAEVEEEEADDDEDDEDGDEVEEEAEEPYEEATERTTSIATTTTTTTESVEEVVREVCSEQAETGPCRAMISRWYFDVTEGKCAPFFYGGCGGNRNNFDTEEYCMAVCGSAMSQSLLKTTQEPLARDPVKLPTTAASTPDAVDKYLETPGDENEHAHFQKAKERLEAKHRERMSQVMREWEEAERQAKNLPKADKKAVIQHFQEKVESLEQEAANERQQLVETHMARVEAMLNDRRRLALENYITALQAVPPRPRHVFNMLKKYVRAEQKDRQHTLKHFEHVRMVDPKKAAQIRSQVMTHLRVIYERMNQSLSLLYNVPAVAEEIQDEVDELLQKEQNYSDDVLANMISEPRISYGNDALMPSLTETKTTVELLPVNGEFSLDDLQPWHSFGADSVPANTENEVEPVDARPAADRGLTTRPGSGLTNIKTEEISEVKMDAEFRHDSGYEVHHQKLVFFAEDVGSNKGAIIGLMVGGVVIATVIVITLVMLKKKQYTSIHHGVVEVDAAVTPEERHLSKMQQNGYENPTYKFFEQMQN
Procedure: (§1) 20 μg of human Alzheimer disease brain homogenate was incubated with a dilution series of each test compound (1000 to 0.06 nM) in the presence of 800 Bq of ^18F-labeled beta-amyloid binder. The samples were shaken at 110 rpm for 45 min at 37° C. Samples were then filtered through GF/B 96 well filter plates and washed twice with 300 μL assay buffer (PBS containing 0.1% BSA and 2% DMSO). Thereafter, filter plates were sealed and a Fuji Film Imaging Plate (BAS-SR2025) was placed on top. The imaging plate was analyzed after overnight exposition using a Fuji Film BAS-5000. Non-specific signal was determined with samples containing ^18F-labeled beta-amyloid binder in the presence of assay buffer without brain substrate and competitor. […] The unblocked ^18F-labeled beta-amyloid binder signal was defined as total binding. IC50 values were calculated by Prism V6 (GraphPad) setting total binding to 100%.

[4] = target: Tau (Homo sapiens, UniProt P10636); assay: Competition binding to Tau in human AD brain homogenate with 18F-labeled Tau binder; set-up: High affinity to Tau (grade): key: −: poor; ∘: moderate; +: good; ++: very good; +++: excellent; conditions: for IC50: human AD brain homogenate, determined with non-radioactive fluorine-19 derivatives
Chain of Tau (P10636 623-708 limits assumed): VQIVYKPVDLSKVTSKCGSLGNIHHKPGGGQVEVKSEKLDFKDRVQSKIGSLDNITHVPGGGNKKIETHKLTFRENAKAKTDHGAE
Procedure: as §1, with “of ^18F-labeled Tau binder. The” for “of ^18F-labeled beta-amyloid binder. The”, “containing ^18F-labeled Tau-reference binder in” for “containing ^18F-labeled beta-amyloid binder in”, “unblocked ^18F-labeled Tau-binder signal was” for “unblocked ^18F-labeled beta-amyloid binder signal was”

Compound: [18F]c1ncccc1-c1ccc2c(n1)[nH]c1ccncc12 [Compound ^18F-4]
- IC50 [1]: > 1000 nM
- fold higher MAO B IC50 than compound 18F-1 ([1]; HC brain homogenate): > 5 fold
- Low affinity to MAO B (grade) ([1]; Table 1): +++
- Fast washout from healthy brain (grade) ([2]; Table 1): +++
- Good brain uptake (grade) ([2]; Table 1): ++
- Low or minor de-fluorination (grade) ([2]; Table 1): +++
- Low retention in healthy brain (grade) ([2]; Table 1): +++
- fold faster washout from healthy brain than compound 18F-1 ([2]; mice): 3.2 fold
- fold faster washout from healthy brain than compound 18F-2 ([2]; mice): 2.0 fold
- fold less long-term retention in healthy brain than compound 18F-1 ([2]; mice): 4 fold
- fold less long-term retention in healthy brain than compound 18F-2 ([2]; mice): 3 fold
- De-fluorination in mice (in words) ([2]; mouse, in vivo): No de-fluorination
- Low affinity to amyloid-beta (grade) ([3]; Table 1): +++^a)
- IC50 [3]: > 1000 nM
- High affinity to Tau (grade) ([4]; Table 1, IC50 in AD brain homogenate, fluorine-19 derivatives): +++
- IC50 [4]: < 2 nM

Compound: Fc1ncccc1-c1ccc2c(n1)[nH]c1ccncc12 [Compound F-4]
- IC50 [1]: > 1000 nM
- Mouse PK De-fluorination (grade) ([2]; Table 2): +++
- Mouse PK Uptake (grade) ([2]; Table 2): ++
- Mouse PK Washout (grade) ([2]; Table 2): ++
- bone uptake in shoulder joint at 60 min (de-fluorination) ([2]; healthy mice, after iv injection): (<0.5% ID/g) ^f
- peak uptake in brain (tracer uptake in healthy mice after iv injection) ([2]; healthy mice, iv, PET): (5.8% ID/g)
- ratio of uptake peak/30 min (washout from healthy brain) ([2]; healthy mice, Table 1: ratio of uptake at 2 min and 30 min): (22)
- IC50 [3]: > 1000 nM
- high Tau binding (grade) ([4]; Table 2, fluorine-19 derivatives): +++
- IC50 [4]: < 2 nM
